# Residue numbers refer to the chain shown, from its start.
# B1: RNA 10mer primer / DNA 16mer template (binary complex) (DNA:RNA)
# ?: AGGCGGGCAG
# DNA: TTTTCGCTGCCCGCCT
# modifications: strand 1 RNA, strand 2 DNA
# B2: RNA 10mer primer extended in crystal by two dG / DNA 25mer template (ternary complex) (DNA:RNA)
# ?: CGGCGGGCAGGG
# DNA: TGAGCGTGTGTACCCCTGCCCGCCG
# modifications: strand 1 is RNA 10mer (S5) plus two 3' deoxyguanosines; strand 2 DNA
# Experiments:
# [1] = biological target: T1, Pol α (catalytic core, 349–1258) (Saccharomyces cerevisiae, UniProt P13382, R508A/N509A/D998N); assay: primer extension assay, denaturing gel; assay type: biochemical; details: labelled compound ([α-32P]dATP); poly(dT) 70mer template; up to 10 μM protein; 90 s
# T1 construct: gene POL1; catalytic core, residues 349-1258 (910 aa); N-terminal dual His/Strep tag, TEV-cleaved; E. coli BL21(DE3)Rosetta2
# T1 sequence (P13382 349-1258 R508A/N509A/D998N): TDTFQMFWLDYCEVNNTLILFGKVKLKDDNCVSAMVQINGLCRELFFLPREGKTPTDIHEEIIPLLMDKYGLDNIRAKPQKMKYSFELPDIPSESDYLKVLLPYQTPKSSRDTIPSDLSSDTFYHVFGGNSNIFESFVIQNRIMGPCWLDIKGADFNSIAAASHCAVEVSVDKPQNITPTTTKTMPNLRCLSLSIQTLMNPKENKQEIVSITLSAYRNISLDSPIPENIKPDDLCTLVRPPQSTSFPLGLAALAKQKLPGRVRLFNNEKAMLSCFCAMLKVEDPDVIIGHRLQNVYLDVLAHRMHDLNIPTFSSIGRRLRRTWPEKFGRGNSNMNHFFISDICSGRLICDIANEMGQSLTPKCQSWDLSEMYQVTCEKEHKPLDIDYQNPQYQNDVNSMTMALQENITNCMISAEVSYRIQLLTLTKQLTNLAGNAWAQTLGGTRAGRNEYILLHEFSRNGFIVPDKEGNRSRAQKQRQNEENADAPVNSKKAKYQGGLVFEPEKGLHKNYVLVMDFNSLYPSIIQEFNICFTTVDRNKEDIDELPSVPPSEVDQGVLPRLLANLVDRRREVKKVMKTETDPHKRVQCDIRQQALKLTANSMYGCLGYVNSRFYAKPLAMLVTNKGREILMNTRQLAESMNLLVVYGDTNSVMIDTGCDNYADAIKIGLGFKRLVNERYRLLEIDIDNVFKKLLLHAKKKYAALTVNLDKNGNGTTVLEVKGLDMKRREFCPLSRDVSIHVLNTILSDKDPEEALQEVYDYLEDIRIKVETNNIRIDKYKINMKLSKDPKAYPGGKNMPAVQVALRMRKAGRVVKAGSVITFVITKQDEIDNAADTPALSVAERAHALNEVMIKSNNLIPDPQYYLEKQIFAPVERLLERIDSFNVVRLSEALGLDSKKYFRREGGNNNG
# [2] = biological target: T1, Pol α (catalytic core, 349–1258); assay: X-ray crystal structure of ternary complex, […] Å; assay type: binding; details: RNA 10mer primer/DNA 25mer template; 5 mM dGTP; 200 mM Mg acetate; polymerase active site; primer extended by dGMP during crystallization (mass spectrometry)
# [3] = biological target: T2, DNA polymerase alpha catalytic core (Pol α), wild type (Saccharomyces cerevisiae, UniProt P13382 349-1258); assay: X-ray crystallography (3.0 Å); 10 mM MgCl2, 1 mM ddCTP in drop (no ddCTP density); Crystals only: binary 0.1 M Bicine pH 8.0, 12% PEG 3350, 10 mM MgCl2, 18 °C; ternary 200 mM Mg acetate, 10% PEG 8000, 5 mM dGTP, micro-batch (3% glycerol). Primer extension assays are turnover only and not listed.; details: protein: recombinant; tags: N-terminal dual His/streptavidin tag, TEV-cleaved; 5' overhang 6 nt on template; 10 bp
# T2 sequence: T1 sequence (P13382 349-1258 R508A/N509A/D998N) with A160R, A161N, N650D
# [4] = biological target: T3, DNA polymerase alpha catalytic core (Pol α), R508A N509A D998N (Saccharomyces cerevisiae, UniProt P13382 349-1258, R508A;N509A;D998N); assay: X-ray crystallography (3.1 Å); dGTP (5 mM) bound in active site; 200 mM Mg acetate; Crystals only: binary 0.1 M Bicine pH 8.0, 12% PEG 3350, 10 mM MgCl2, 18 °C; ternary 200 mM Mg acetate, 10% PEG 8000, 5 mM dGTP, micro-batch (3% glycerol). Primer extension assays are turnover only and not listed.; details: protein: recombinant; tags: N-terminal dual His/streptavidin tag, TEV-cleaved; 5' overhang 13 nt on template after extension (15 nt before); 12 bp
# T3 sequence: T1 sequence (P13382 349-1258 R508A/N509A/D998N)
molecule,measurement,setting,value
Nc1ncnc2c1ncn2[C@H]1C[C@H](O)[C@@H](COP(=O)(O)OP(=O)(O)OP(=O)(O)O)O1 [dATP],"primer extension assay, denaturing gel",[1],Residual activity of the D998N R508A N509A Pol α mutant was demonstrated by the primer extension assay
Nc1nc2c(ncn2[C@H]2C[C@H](O)[C@@H](COP(=O)(O)OP(=O)(O)OP(=O)(O)O)O2)c(=O)[nH]1 [dGTP],"X-ray crystal structure of ternary complex, 3.1 Å",[2],"the R508A, N509A, D998N Pol α mutant was used"
B1,binding result,[3],binds
B2,binding result,[4],binds

# — article PMC3628110, “Mechanism for priming DNA synthesis by yeast DNA Polymerase α” (eLife, 2013)
